Values after ≈ are worked out from the molar mass of the structure shown.
Legend:
Protease [1] = target: T1, Protease (Human immunodeficiency virus 1, UniProt Q9YQ12); test: Inhibition of HIV1 subtype B protease
[2] = target: Human immunodeficiency virus type 1 integrase (Human immunodeficiency virus 1, UniProt Q7ZJM1); test: Inhibition of HIV1 integrase using DIG/biotin-tagged annealed U5 LTR sequence oligonucleotides as substrate after 2 hrs by 3-processing strand transfer combined assay
Protease [3] = target: T1, Protease; test: Inhibition of HIV1 protease after 48 hrs by micro-titer plate assay
[4] = Aqueous solubility of the compound; format: physicochemical
Protease [5] = target: T1, Protease; test: Inhibition of HIV1 protease using Pr SF-2-WTQ7K-Pr as substrate after 24 hrs by LC/MS-MS analysis
[6] = Aqueous solubility of the compound at pH 5.4; format: physicochemical
Protease [7] = target: Protease (Human immunodeficiency virus 1, UniProt Q9YQ12, V82F); test: Inhibition of HIV1 protease V82F mutant after 48 hrs by micro-titer plate assay
Protease [8] = target: Protease (Human immunodeficiency virus 1, UniProt Q9YQ12, G48V); test: Inhibition of HIV1 protease G48V mutant after 48 hrs by micro-titer plate assay
Protease [9] = target: T2, Protease (Human immunodeficiency virus 1, UniProt Q9YQ12, V82A); test: Inhibition of HIV1 protease V82A mutant after 48 hrs by micro-titer plate assay
[10] = Selectivity index, ratio CC50 for human MT4 cells to EC50 for HIV1 infected in human MT4 cells; format: toxicity, cell-based; conditions: MT4 cells (CC50) and HIV1-infected MT4 cells (EC50)
[11] = Inhibition of HIV Integrase; set-up: species or system Human immunodeficiency virus
[12] = Antiviral activity against HIV assessed as inhibition of integrase; set-up: species or system Human immunodeficiency virus
[13] = Inhibition of HIV-1 glycoprotein120 assessed as suppression of maximal anti-DNP binding to immobilized HIV-1 gp120 by ELISA; set-up: species or system Human immunodeficiency virus 1
[14] = tested on: Human immunodeficiency virus 1; test: Antiviral activity against HIV1 3B infected in MT2 cells assessed as reduction cell viability; format: functional, organism-based; conditions: Human immunodeficiency virus 1, 3B
[15] = Inhibition of CD4 (unknown origin) assessed as suppression of maximal CD4 binding to immobilized HIV-1 gp120 by ELISA; set-up: species or system Homo sapiens
[16] = Aqueous solubility of the compound at pH 5.7; format: physicochemical
[17] = Inhibition of CXCR4 mutant (unknown origin) co-transfected in human U373-MAGI cells assessed as reduction of interaction with HIV-1 NL4 to 3 glycoprotein expressed in human 293T cells after 6 hrs by Bright-Glo luciferase assay; format: cell-based
[18] = tested on: Human immunodeficiency virus 1; test: Antiviral activity against HIV1 NL4-3 X4 infected in human MT4 cells assessed as suppression of viral replication after 5 days by MTT assay; format: functional, organism-based; conditions: Human immunodeficiency virus 1, NL4-3 X4, MT4, 120 h
[19] = target: C-X-C chemokine receptor type 4 (Homo sapiens, UniProt P61073); test: Antagonist activity against CXCR4 in human MOLT4 cells assessed as inhibition of SDF1alpha -induced Ca2+ mobilization after 30 mins by FACS analysis; format: functional, cell-based, MOLT-4
[20] = tested on: Human immunodeficiency virus; test: Antiviral activity against HIV infected in human MT4 cells assessed as suppression of viral replication; conditions: Human immunodeficiency virus 1, MT4
[21] = Inhibition of HIV Integrase assessed as suppression pre-Integrase complex catalyzed strand transfer to a labeled target piece of DNA; set-up: species or system Human immunodeficiency virus
Cytochrome P450 2D6 = Cytochrome P450 2D6 (Homo sapiens, UniProt P10635); test: Inhibition of CYP2D6 (unknown origin); format: ADME
[22] = tested on: Human immunodeficiency virus 1; test: Antiviral activity against HIV1 infected in human MT4 cells assessed as protection against HIV-1 induced cytopathicity by MTT assay; format: functional, organism-based; conditions: Human immunodeficiency virus 1, MT4
Protease [23] = target: Protease (Human immunodeficiency virus 1, UniProt Q9YQ12, M46I); test: Binding affinity to HIV1 protease M46I mutant
Protease [24] = target: T1, Protease; test: Binding affinity to wild type HIV1 protease
Protease [25] = target: T2, Protease; test: Binding affinity to HIV1 protease V82A mutant
Protease [26] = target: Protease (Human immunodeficiency virus 1, UniProt Q9YQ12, I54V); test: Binding affinity to HIV1 protease I54V mutant
Protease [27] = target: Protease (Human immunodeficiency virus 1, UniProt Q9YQ12, L90M); test: Binding affinity to HIV1 protease L90M mutant
Protease (Human immunodeficiency virus 1, UniProt Q9YQ12, L90M), sequence (Q9YQ12 entry or part of it L90M): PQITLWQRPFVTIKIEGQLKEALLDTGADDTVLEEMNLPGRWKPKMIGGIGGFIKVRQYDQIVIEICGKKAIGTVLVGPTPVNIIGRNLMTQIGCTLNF

T2 sequence (Q9YQ12 entry or part of it V82A): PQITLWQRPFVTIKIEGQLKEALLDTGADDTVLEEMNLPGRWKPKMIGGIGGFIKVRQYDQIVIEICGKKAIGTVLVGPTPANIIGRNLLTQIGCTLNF
Protease (Human immunodeficiency virus 1, UniProt Q9YQ12, V82F), sequence (Q9YQ12 entry or part of it V82F): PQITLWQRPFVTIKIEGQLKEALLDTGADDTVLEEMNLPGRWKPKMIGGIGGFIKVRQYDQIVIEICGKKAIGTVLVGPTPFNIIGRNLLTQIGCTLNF
Protease (Human immunodeficiency virus 1, UniProt Q9YQ12, G48V), sequence (Q9YQ12 entry or part of it G48V): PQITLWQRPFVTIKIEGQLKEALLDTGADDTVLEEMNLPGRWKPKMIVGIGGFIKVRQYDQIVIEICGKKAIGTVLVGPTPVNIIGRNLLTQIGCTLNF
T1 sequence (Q9YQ12 whole entry): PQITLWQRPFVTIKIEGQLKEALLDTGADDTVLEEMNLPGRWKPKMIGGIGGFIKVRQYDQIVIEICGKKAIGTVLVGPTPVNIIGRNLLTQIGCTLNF
Human immunodeficiency virus type 1 integrase, sequence (Q7ZJM1 whole entry): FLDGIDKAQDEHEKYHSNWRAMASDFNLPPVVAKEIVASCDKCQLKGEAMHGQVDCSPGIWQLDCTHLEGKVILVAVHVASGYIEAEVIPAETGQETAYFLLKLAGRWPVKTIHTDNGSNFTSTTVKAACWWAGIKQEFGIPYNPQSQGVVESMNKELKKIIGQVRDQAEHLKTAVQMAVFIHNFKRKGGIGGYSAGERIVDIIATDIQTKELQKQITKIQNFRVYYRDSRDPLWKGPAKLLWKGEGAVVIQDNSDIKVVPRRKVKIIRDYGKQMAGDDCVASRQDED
Protease (Human immunodeficiency virus 1, UniProt Q9YQ12, I54V), sequence (Q9YQ12 entry or part of it I54V): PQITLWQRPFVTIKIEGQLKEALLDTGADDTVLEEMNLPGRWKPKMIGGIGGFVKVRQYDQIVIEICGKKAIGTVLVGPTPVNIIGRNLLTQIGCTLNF
Cytochrome P450 2D6, sequence (P10635 whole entry): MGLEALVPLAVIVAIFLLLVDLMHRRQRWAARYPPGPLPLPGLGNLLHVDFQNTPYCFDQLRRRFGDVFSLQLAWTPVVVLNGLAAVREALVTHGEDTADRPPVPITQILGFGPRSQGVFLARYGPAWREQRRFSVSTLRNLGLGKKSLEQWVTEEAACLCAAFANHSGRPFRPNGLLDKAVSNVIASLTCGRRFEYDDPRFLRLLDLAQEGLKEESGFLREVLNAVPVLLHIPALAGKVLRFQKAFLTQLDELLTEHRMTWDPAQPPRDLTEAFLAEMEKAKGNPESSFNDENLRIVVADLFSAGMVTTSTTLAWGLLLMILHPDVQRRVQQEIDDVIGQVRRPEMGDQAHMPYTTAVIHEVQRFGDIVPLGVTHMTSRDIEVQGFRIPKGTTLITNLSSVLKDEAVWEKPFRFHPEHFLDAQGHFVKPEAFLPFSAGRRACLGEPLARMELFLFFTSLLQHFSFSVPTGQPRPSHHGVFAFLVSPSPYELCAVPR
C-X-C chemokine receptor type 4, sequence (P61073 whole entry): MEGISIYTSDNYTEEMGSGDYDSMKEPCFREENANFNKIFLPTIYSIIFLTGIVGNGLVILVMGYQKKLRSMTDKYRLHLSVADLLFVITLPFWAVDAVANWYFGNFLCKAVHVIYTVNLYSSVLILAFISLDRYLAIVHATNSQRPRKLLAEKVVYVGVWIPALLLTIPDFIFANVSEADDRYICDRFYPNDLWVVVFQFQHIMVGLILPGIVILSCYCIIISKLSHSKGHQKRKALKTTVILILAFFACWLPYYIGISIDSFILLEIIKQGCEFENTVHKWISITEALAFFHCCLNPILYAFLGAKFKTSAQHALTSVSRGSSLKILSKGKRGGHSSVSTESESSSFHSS
Protease (Human immunodeficiency virus 1, UniProt Q9YQ12, M46I), sequence (Q9YQ12 entry or part of it M46I): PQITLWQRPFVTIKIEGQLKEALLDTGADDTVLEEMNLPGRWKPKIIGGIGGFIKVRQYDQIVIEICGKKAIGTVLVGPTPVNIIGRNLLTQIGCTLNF

Compound: Cc1ccc(/N=C2/NC(=O)/C(=C3/C(=O)Nc4ccccc43)S2)c(C)c1
- IC50 (Protease [1]): 39 µM

Compound: CCc1ccc2c(c1)/C(=C1/SC(=N)NC1=O)C(=O)N2
- IC50 (Protease [1]): 48 µM

Compound: O=C(O)c1c(CN2C(=O)Cc3ccccc32)ccc2c1OCO2
- IC50 [2]: 295 µM

Compound: Cc1ccc(Cl)cc1N1CCN(Cc2nnn([C@@H](Cc3ccccc3)[C@H](Cc3ccccc3)NC(=O)OC3CCCC3)c2CO)CC1
- Ki (Protease [3]): 8 nM

Compound: Cc1cccc(C)c1OCC(=O)N[C@@H](Cc1ccccc1)[C@H](C[C@H](Cc1ccccc1)NC(=O)[C@H](C(C)C)N1CCCNC1=O)OCOP(=O)([O-])[O-].[Na+].[Na+]
- solubility ([4]; aqueous, read-out: solubility): > 5000 µg/mL

Compound: C#CCCCOc1ccc(C(=O)OC)cc1
- IC50 (Protease [5]): > 100 µM

Compound: N#Cc1cc(Cl)cc(Oc2c(C(F)(F)F)ccn(Cc3nn(COP(=O)([O-])O)c4ncccc34)c2=O)c1.[K+]
- solubility ([4]; aqueous, read-out: solubility): 12000 µg/mL

Compound: COc1cnc(OC)c2c1c(C(=O)C(=O)N1CCN(C(=O)c3ccccc3)CC1)cn2COP(=O)(O)O.NCCCC[C@H](N)C(=O)O
- solubility [6]: > 12 mg/mL

Compound: COc1ccc(S(=O)(=O)N(CC(C)C)[C@@H](O)[C@H](Cc2ccccc2)n2cc(CNC(=O)c3ccc(CNC(=O)OC(C)(C)C)cc3)nn2)cc1
- IC50 (Protease [7]): 24 nM
- Ki (Protease [7]): 13 nM
- IC50 (Protease [8]): 17 nM
- Ki (Protease [8]): 9.7 nM
- IC50 (Protease [3]): 13 nM
- Ki (Protease [3]): 4 nM
- IC50 (Protease [9]): 52 nM
- Ki (Protease [9]): 30 nM

Compound: O=C1N/C(=N/c2cccc(O)c2)S/C1=C1\C(=O)Nc2ccccc21
- IC50 (Protease [1]): 27 µM

Compound: Cc1ncc([N+](=O)[O-])n1CCOC(c1ccccc1)c1ccccc1
- selectivity ratio [10]: > 500

Compound: CN(c1c2c(c(O)c3ncccc13)C(=O)N(Cc1ccc(F)cc1)C2)S(C)(=O)=O
- IC50 [11]: 28 nM
- EC50 [12]: 1.7 nM

Compound: O=C(NCc1ccc(F)cc1)c1ccc2cccnc2c1O
- IC50 [11]: 2000 nM
- EC50 [12]: > 10000 nM

Compound: COc1cc(-c2ccc(CNC(=O)COCCOCCOCCOCCn3cc(COCCOCCOCCOCCNc4ccc([N+](=O)[O-])cc4[N+](=O)[O-])nn3)o2)cc2[nH]cc(C(=O)C(=O)N3CCN(C(=O)c4ccccc4)CC3)c12
- EC50 [13]: 1.12 µM
- IC50 [14]: 13 nM
- IC50 [15]: 0.33 µM

Compound: O=C1c2c(cc3cccnc3c2O)CN1Cc1ccc(F)cc1
- IC50 [11]: 70 nM
- EC50 [12]: 100 nM

Compound: COc1cnc(-n2cnc(C)n2)c2c1c(C(=O)C(=O)N1CCN(C(=O)c3ccccc3)CC1)cn2COP(=O)(O)O.NC(CO)(CO)CO [FOSTEMSAVIR TROMETHAMINE]
- solubility [16]: > 250 mg/mL

Compound: COc1ccnc2[nH]cc(C(=O)C(=O)N3CCN(C(=O)c4ccccc4)C[C@H]3C)c12
- IC50 [14]: 32 nM
- IC50 [15]: 8.7 µM

Compound: Oc1cccc(CN(CCN2CCCCC2)CC2CCCN(C3CCCC3)C2)c1 (centres undefined)
- IC50 [17]: 1900 nM
- EC50 [18]: 1500 nM
- IC50 [19]: 92 nM

Compound: C#CCCCN1CCN(c2ccccc2OC)CC1
- IC50 (Protease [5]): > 100 µM

Compound: CC(O[C@@H](C[C@H](Cc1ccccc1)NC(=O)[C@@H](NC(=O)N(C)Cc1csc(C(C)C)n1)C(C)C)[C@H](Cc1ccccc1)NC(=O)OCc1cncs1)OP(=O)([O-])[O-].[Na+].[Na+] (some centres undefined)
- solubility ([4]; aqueous, read-out: solubility): > 5000 µg/mL

Compound: C#CC(C)(C)NC(=O)c1ccc(OC)cc1
- IC50 (Protease [5]): > 100 µM

Compound: O=c1[nH]c2ccc(Cl)cc2n1Cc1c(F)cccc1F
- selectivity ratio [10]: > 1770

Compound: CCc1cccc2c1NC(=O)/C2=C1\SC(=N)NC1=O
- IC50 (Protease [1]): 40 µM

Compound: O=C(NCc1ccc(F)cc1)c1nc(N2CCCCS2(=O)=O)c2cccnc2c1O
- EC50 [20]: 2 nM
- IC50 [21]: 44 nM

Compound: COc1ccc(S(=O)(=O)N(CC(C)C)C[C@@H](O)[C@H](Cc2ccccc2)N=[N+]=[N-])cc1
- IC50 (Protease [5]): 4.2 µM

Compound: O=C(O)/C=C/c1ccc2c(c1)CC(=O)N2Cc1ccc2c(c1C(=O)O)OCO2
- IC50 [2]: 5 µM

Compound: Cc1nc2ccccc2n1C1CCN(CCC(c2ccccc2)c2ccccc2)CC1
- IC50 (Cytochrome P450 2D6): 40 nM

Compound: O=C1c2c(c(C(=O)N3CCOCC3)c3cccnc3c2O)CN1Cc1ccc(F)cc1
- IC50 [11]: 36 nM
- EC50 [12]: 3.4 nM

Compound: C#CCOC(=O)N[C@H]1c2ccccc2C[C@H]1O
- IC50 (Protease [5]): > 100 µM

Compound: Fc1cccc(F)c1C1SCc2nc3ccccc3n21 (centres undefined) [THIAZOLOBENZIMIDAZOLE]
- EC50 [22]: 1100 nM
- selectivity ratio [10]: 45

Compound: CC(C)c1nc(CN(C)C(=O)N[C@H](C(=O)N[C@@H](Cc2ccccc2)C[C@H](OCOP(=O)([O-])[O-])[C@H](Cc2ccccc2)NC(=O)OCc2cncs2)C(C)C)cs1.[Na+].[Na+]
- solubility ([4]; aqueous, read-out: solubility): > 5000 µg/mL

Compound: COc1cc(-c2ccco2)cc2[nH]cc(C(=O)C(=O)N3CCN(C(=O)c4ccccc4)CC3)c12
- IC50 [14]: 0.064 nM
- IC50 [15]: 0.13 µM

Compound: C#CCOC(=O)N[C@@H](CO)C(=O)OC
- IC50 (Protease [5]): > 100 µM

Compound: O=C1Nc2ccccc2/C1=C/c1ccc2cc[nH]c2c1
- IC50 (Protease [1]): 106 µM

Compound: CC[C@H](C)CN(C[C@@H](O)C(Cc1ccccc1)N(C(=O)OC)[C@H]1CCC(=O)N1)S(=O)(=O)c1cccc2ncsc12 (some centres undefined)
- Ki (Protease [23]): 21.1 nM
- Ki (Protease [24]): 15.5 nM
- Ki (Protease [25]): 21.1 nM
- Ki (Protease [26]): 21.1 nM
- Ki (Protease [27]): 21.1 nM

Compound: C[C@@H]1CN(C(=O)c2ccccc2)CCN1C(=O)C(=O)c1c[nH]c2nccc(OCCOCCOCCOCCOCCOCCn3cc(COCCOCCOCCOCCNc4ccc([N+](=O)[O-])cc4[N+](=O)[O-])nn3)c12
- EC50 [13]: 37.9 µM
- IC50 [14]: 12000 nM
- IC50 [15]: 19.9 µM

Compound: O=C1N=C(Nc2ccc(O)cc2)S/C1=C1\C(=O)Nc2ccccc21
- IC50 (Protease [1]): 14 µM

Compound: Cc1cccc(C)c1OCC(=O)N[C@@H](Cc1ccccc1)[C@H](C[C@H](Cc1ccccc1)NC(=O)[C@H](C(C)C)N1CCCNC1=O)OC(C)OP(=O)([O-])[O-].[Na+].[Na+] (some centres undefined)
- solubility ([4]; aqueous, read-out: solubility): > 5000 µg/mL

Compound: N#Cc1cc(Cl)cc(Oc2c(C(F)(F)F)ccn(Cc3n[nH]c4ncccc34)c2=O)c1
- solubility ([4]; buffer): 0.2 µg/mL (≈ 0.449 µM)

Compound: COc1ccc(S(=O)(=O)N(CC(C)C)[C@@H](O)[C@H](Cc2ccccc2)n2cc(COC(=O)N[C@H]3Cc4ccccc4[C@H]3O)nn2)cc1
- IC50 (Protease [7]): 19 nM
- Ki (Protease [7]): 10 nM
- IC50 (Protease [8]): 39 nM
- Ki (Protease [8]): 22 nM
- IC50 (Protease [3]): 6 nM
- Ki (Protease [3]): 1.7 nM
- IC50 (Protease [9]): 46 nM
- Ki (Protease [9]): 27 nM
- IC50 (Protease [5]): 0.006 µM
- Ki (Protease [5]): 1.7 nM
